Measurements reported in patent US20260355239A1, “COMBINATION OF A T CELL THERAPY AND CONTINUOUS OR INTERMITTENT DGK INHIBITOR DOSING” (Juno Therapeutics, Inc., priority 2022, published 2026).

Assays:
[1] = tested on: Nalm6-rFluc cells; test: Tumor cell re-challenge after CAR T cell combination, Nalm6-rFluc (Example 11); type: in vivo, NSG mice
Protocol: Mice in Example 10 who received the CAR T cell combination with continuous Compound 17 dosing regimen were re-challenged by intravenous injection of 5×10^6 Nalm6-rFluc cells on Day 71. For comparison, 5×10^6 Nalm6-rFluc cells were intravenously injected into naive mice that had not previously been injected with or administered Nalm6-rFluc cells, CAR T cells, or Compound 17 (n=4 per group). […] Tumor burden was assessed for 10 days following re-challenge. Survival of treated mice was assessed until 30 days post re-challenge.

[2] = tested on: T cells; test: T cell function and exhaustion of engineered T cells in presence of DGKi (summary of observations); type: cell-based, human
Text: In some aspects, the provided methods enhance or modulate proliferation and/or activity of T cell activity associated with administration of the T cell therapy (e.g. CAR-expressing T cells).
Thus, while in some cases agents that increase or potentiate T cell activity may drive the cells to an exhausted state, it is found herein that activity of such DGKi, e.g., Compound 17, to exert a potentiating effect on T cell activity is decoupled from T cell exhaustion. In some embodiments, the provided methods involving compound administration of such DGKi, e.g., Compound 17, is capable of potentiating activity of T cells and delaying, limiting, reducing, inhibiting or preventing exhaustion.
These observations were made using a chronic stimulation assay to render T cells (e.g. CAR T cells) hypofunctional (e.g. reduced cytolysis and IL-2 secretion). Using this model, engineered T cells (e.g. CAR T cells or eTCR T cells) were examined to assess impact of DGKi, such as Compound 17, on function of the engineered T cells when present during (concurrent) or following (rescue) exposure to conditions leading to a hypofunctional, exhaustive state.

[3] = tested on: HPV-expressing CaSki cells; test: Rescue treatment: cytolytic function of chronically stimulated eTCR T cells; type: cell-based, human; settings: 100 nM, 2.5:1 effector:target, 10 or 20 μg/mL anti-Vbeta chronic stimulation
Text: Primary human CD4+ and CD8+ T cells were isolated from healthy donors by immunoaffinity-based methods. The isolated CD4+ and CD8+ T cells were combined and stimulated with an anti-CD3/anti-CD28 reagent, and then were transduced with a lentiviral vector encoding an anti-human papillomavirus 16 (anti-HPV16) eTCR. The nucleotide sequences encoding the beta chain and the alpha chain of the eTCR were separated by a sequence encoding a 2A ribosome skip element. Following transduction, the cells were cultured in media containing human serum and cytokines for 9-10 days prior to further assessment.
To assess the effects of rescue treatment with Compound 17 on cytolytic function, eTCR cells were stimulated for six days using 10 μg/mL or 20 μg/mL plate-bound antibody against the TCR Vbeta chain in the absence of Compound 17.
Following chronic stimulation, the eTCR-T cells were co-cultured with HPV-expressing CaSki cells at a 2.5:1 effector:target ratio in the presence of Compound 17 at 100 nM. As a control, chronically stimulated eTCR cells were co-cultured with CaSki cells in the absence of Compound 17. The CaSki cells were transduced with NucLight Red (NLR) and tumor cell number was monitored by Incucyte®.

[4] = tested on: anti-CD19 CAR T cells; test: In vivo expansion and/or persistence of CAR T cells from different donors, Raji-rFluc NSG mice (Example 8); settings: 0.3 mg/kg oral once daily Days 1-7, four donors, vs CAR T cells alone
Protocol: The effects of Compound 17 administration on in vivo expansion and/or persistence of CAR T cells produced from different healthy donors were assessed.

[5] = tested on: engineered T cells for the T cell therapy; test: In vivo anti-tumor effects and CAR T cell expansion/persistence with continuous DGKi dosing (summary of observations)
Text: Without wishing to be limited by a specific mechanism of action, the results shown herein are consistent with a finding that the continuous presence of the DGKi following T cell therapy administration may prevent or reduce exhaustion in T cells of the T cell therapy, thereby improving T cell anti-tumor activity and proliferative capacity following administration.

[6] = tested on: CD19-expressing lymphoma cells (K562.CD19, Granta-519, Raji); test: Cytolytic activity of chronically stimulated, concurrently treated CAR-T cells, 2D co-culture; type: cell-based, human; settings: concurrent treatment during chronic stimulation; 2D re-challenge without compound
Protocol: To simulate conditions of chronic stimulation, approximately 20,000 anti-CD19 CAR-expressing T cells of a combined CAR-T cell composition produced as described in Example 2 from two healthy adult donors were incubated with 30 µg/mL of plate-bound CAR-specific anti-idiotypic antibody (see, e.g., WO2018/023100) at 37 °C for a period of seven days. During this seven-day period, engineered CAR T cells were concurrently treated with Compound 17(0.1-1000 nM) or a vehicle control added at day 0.
Stimulated CAR T cells were then re-challenged with CD19-expressing tumor cells or tumor spheroids in the absence of Compound 17, and cytolytic activity and cytokine production were assessed.
To assess cytolytic function, the stimulated CAR-T cell composition was co-cultured with various CD19-expressing lymphoma cells at a 2.5:1 effector:target ratio. The tumor cells were engineered to express NucLight Red (NLR) and tumor cell number was monitored by Incucyte®. […] Duplicate values for cell compositions manufactured from the two different healthy donors are shown.

[7] = tested on: Raji cells; test: Rescue treatment: cytolytic activity of chronically stimulated CAR-T cells, 2D, Raji; type: cell-based, human; settings: higher concentrations, 2D co-culture
Protocol: Anti-CD19 CAR-expressing T cells, produced as described in Example 2, were chronically stimulated with plate-bound CAR-specific anti-idiotypic antibody for seven days as described in Example 3, but in the absence of Compound 17 during chronic stimulation. Instead, chronically stimulated CAR T cells were treated with Compound 17 during re-challenge with CD19-expressing tumor cells, after which cytolytic activity and cytokine production were assessed.
The chronically stimulated CAR-T cells were incubated with various CD19-expressing lymphoma cells at a 2.5:1 effector:target ratio in the presence of DGKi (0-1000 nM). The tumor cells were labeled with NucLight Red (NLR) and tumor cell number was monitored by Incucyte®.

[8] = tested on: K562.CD19 cells; test: Rescue treatment: cytolytic activity of chronically stimulated CAR-T cells, 2D, K562.CD19; type: cell-based, human; settings: higher concentrations, 2D co-culture

CC[C@H]1CN([C@@H](CC)c2ccc(C(F)(F)F)cc2)[C@H](CC)CN1c1nc(=O)n(C)c2ccc(C#N)nc12 [Compound 17, 4-((2S,5R)-2,5-diethyl-4-((S)-1-(4-(trifluoromethyl)phenyl)propyl)piperazin-1-yl)-1-methyl-2-oxo-1,2-dihydropyrido[3,2-d]pyrimidine-6-carbonitrile]
survival after re-challenge ([1]; re-challenge Day 71 after CAR T + Compound 17, until 30 days post re-challenge): survival benefit
tumor growth after re-challenge ([1]; re-challenge Day 71 after CAR T + Compound 17, vs naive mice): delayed tumor growth
T cell function (cytokine production, cytotoxicity, expansion, proliferation, persistence) [2]: improves T cell function
effect on T cell exhaustion ([2]; chronic (long-term) stimulation): reverse, delay, or prevent T cell exhaustion
cytolytic function of chronically stimulated eTCR cells [3]: able to improve cytolytic function of chronically stimulated eTCR cells
CAR T cell expansion and/or persistence [4]: CAR T cell expansion and/or persistence was increased in all mice
in vivo anti-tumor effects ([5]; continuous dosing, at least once daily for a plurality of consecutive days, with engineered T cells): improves in vivo anti-tumor effects
CAR T cell expansion and/or persistence ([5]; continuous presence of DGKi beginning on same day as T cell therapy): can improve CAR T cell expansion and/or persistence, in particular that of CD4+ CAR T cells
CAR-T cell cytolytic activity against CD19-expressing lymphoma cells [6]: decreased CAR-T cell cytolytic activity against the CD19-expressing lymphoma cells in a dose-dependent manner
cytolytic activity of CAR T cells against Raji cells [7]: not Raji cells
cytolytic activity of CAR T cells against K562.CD19 cells [8]: improved the cytolytic activity of CAR T cells against K562.CD19 and Granta-519 cells
